ChEMBL document CHEMBL6115028, “An Amazing 30-Year Journey around the DABO Family: A Medicinal Chemistry Lesson on a Versatile Class of Non-nucleoside HIV-1 Reverse Transcriptase Inhibitors” (J Med Chem, 2025)
pEC50: −log10 of the molar value. One block for each molecule: values may come before it.

How the values were obtained:
[1] = tested on: Human immunodeficiency virus 1; assay: Antiviral activity against wild type HIV-1 NL4-3 infected in human MT4 cells assessed as reduction in viral replication; format: functional, organism-based; conditions: Human immunodeficiency virus 1, NL4-3, MT4
[2] = tested on: Human immunodeficiency virus 1; assay: Antiviral activity against HIV-1 NL4-3 harboring infected Y181C mutant infected in human MT4 cells assessed as reduction in viral replication; format: functional, organism-based; conditions: Human immunodeficiency virus 1, NL4-3, MT4
[3] = Cytotoxicity against African green monkey Vero cells assessed as reduction in cell viability incubated for 72 hrs by MTT assay; format: toxicity, cell-based; conditions: chlorocebus sabaeus
[4] = tested on: Human immunodeficiency virus 1; assay: Antiviral activity against HIV-1 harboring protease V82F mutant infected in human C8166 cells assessed as inhibition of viral replication measured for 72 hrs by spectrophotometric MTT assay; format: functional, organism-based; conditions: Human immunodeficiency virus 1, C8166, 72 h
[5] = Cytotoxicity against african green monkey Vero cells assessed as reduction in cell viability measured after 72 hrs by MTT assay; format: toxicity, cell-based; conditions: chlorocebus sabaeus
[6] = tested on: Human immunodeficiency virus 1; assay: Antiviral activity against HIV-1 IIIB infected in human C8166 cells assessed as reduction in virus -induced cytopathic effect measured after 48 hrs by CellTiter-Glo Luminescent cell viability assay; format: functional, organism-based; conditions: Human immunodeficiency virus 1, IIIB, C8166, 48 h
[7] = Selectivity index, ratio of CC50 for cytotoxicity against human MT2 cells to EC50 for antiviral activity against HIV-1 IIIB infected in human MT2 cells; format: toxicity, cell-based; conditions: read-out: Ratio CC50/EC50
C8166 = assay: Cytotoxicity against human C8166 cells assessed as reduction in cell viability; format: functional
[8] = tested on: Human immunodeficiency virus 1; assay: Antiviral activity against wild-type HIV-1 IIIB infected in human MT4 cells assessed as reduction in virus-induced cytopathic effect incubated for 5 days by MTT assay; format: functional, organism-based; conditions: Human immunodeficiency virus 1, IIIB, MT4, 120 h
[9] = tested on: Human immunodeficiency virus 1; assay: Antiviral activity against HIV-1 IIIB infected in human C8166 cells; format: functional, organism-based; conditions: Human immunodeficiency virus 1, IIIB
MT4 [10] = assay: Cytotoxicity against human MT4 cells assessed as reduction in cell growth incubated for 3 days by CellTiter-Glo luminescent assay; format: functional; conditions: MT4, 72 h, time 3 day
[11] = tested on: Human immunodeficiency virus 2; assay: Antiviral activity against HIV-2 ROD infected in human MT4 cells assessed as virus-induced cytopathic effect incubated for 5 days by MTT assay; format: functional, organism-based; conditions: Human immunodeficiency virus 2, ROD, MT4, 120 h
MT4 [12] = assay: Cytotoxicity against human MT4 cells assessed as reduction in cell growth after 5 days by MTT assay; format: functional; conditions: MT4, 120 h, time 5 day
[13] = Selectivity index, ratio of CC50 for human MT4 cells to EC50 for antiviral activity against HIV1 infected in human MT4 cells; format: toxicity, cell-based; conditions: read-out: Ratio CC50/EC50
MT4 [14] = assay: Cytotoxicity against human MT4 cells; format: functional
[15] = tested on: Human immunodeficiency virus 1; assay: Antiviral activity against HIV-1 NL4-3 infected in human MT2 cells assessed as reduction in viral replication assessed as inhibition of viral growth incubated for 72 hrs by ELISA; format: functional, organism-based; conditions: Human immunodeficiency virus 1, NL4-3, MT2, 72 h
[16] = tested on: Human immunodeficiency virus 1; assay: Antiviral activity against wild type HIV-1 IIIB harboring Y181C/K103N double mutant infected in human MT4 cells assessed as reduction in cytopathic effect measured after 4 days by MTT assay; format: functional, organism-based; conditions: Human immunodeficiency virus 1, IIIB, MT4, 96 h
MT4 [17] = assay: Cytotoxicity against human MT4 cells assessed as reduction in cell viability incubated for 4 days by MTT assay; format: functional; conditions: MT4, 96 h, time 4 day
[18] = tested on: Human immunodeficiency virus 1; assay: Antiviral activity against […] infected in human MT4 cells assessed as reduction in cytopathic effect measured after 4 days by MTT assay; format: functional, organism-based; conditions: Human immunodeficiency virus 1, IIIB, MT4, 96 h
[19] = read-out: ED50 (the source's name)

SMILES: COC(=O)[C@H](C)NP(=O)(Oc1ccccc1)Oc1nc(N(C)C)nc(C(C)c2c(F)cccc2F)c1C (stereo partly specified)
- pEC50 ([1]; read-out: EC50): 8.15
- pEC50 [2]: 5.92

SMILES: CSCSc1nc(Cc2c(F)cccc2Cl)cc(=O)[nH]1
- CC50 at 72 h [3]: 55.3 µM
- pEC50 [4]: 6.40

SMILES: Cc1c(OP(=O)(N[C@@H](C)C(=O)OCc2ccccc2)Oc2ccccc2)nc(N(C)C)nc1C(C)c1c(F)cccc1F (stereo partly specified)
- pEC50 ([1]; read-out: EC50): 8.00
- pEC50 [2]: 5.96

SMILES: CC(C)CCSc1nc(Cc2c(F)cccc2F)cc(=O)[nH]1
- CC50 at 72 h [5]: > 200 µM
- pEC50 [6]: 7.30
- selectivity ratio [7]: > 4000
- CC50 (C8166): > 200 µM

SMILES: CCCCNc1nc(C(C)c2c(F)cccc2F)c(C)c(=O)[nH]1 (stereo unspecified)
- pEC50 [8]: 7.40

SMILES: CSCSc1nc(Cc2c(Cl)cccc2Cl)cc(=O)[nH]1
- CC50 at 72 h [3]: 48.1 µM
- pEC50 [4]: 5.89

SMILES: Cc1cc(C)cc(OCCSc2nc(Cc3ccccc3)cc(=O)[nH]2)c1
- CC50 at 72 h [3]: 72.9 µM
- pEC50 [4]: 5.89

- pEC50 [9]: 6.43
SMILES: COc1ccc(C(=O)CSc2nc(Cc3ccccc3)c(C)c(=O)[nH]2)cc1
- CC50 (MT4 [10]): > 290 µM
- pEC50 [11]: 6.38

SMILES: CCCCNc1nc(Cc2c(F)cccc2F)c(C)c(=O)[nH]1
- CC50 (MT4 [12]): 70 µM
- pEC50 [8]: 8.22

SMILES: Cc1c([C@H](C)c2c(F)cccc2F)nc(SC2CCCCC2)[nH]c1=O
- CC50 at 72 h [5]: > 200 µM
- selectivity ratio [13]: > 10000

SMILES: Cc1cc(C)cc(OCCSc2nc(Cc3c(F)cccc3F)cc(=O)[nH]2)c1
- CC50 at 72 h [3]: 90 µM
- pEC50 [4]: 4.95

SMILES: Cc1c(Cc2c(F)cccc2F)nc(NC2CCCCC2)[nH]c1=O
- CC50 (MT4 [12]): 200 µM
- pEC50 [8]: 8.30

- pEC50 [9]: 7.11
SMILES: CC(C)c1c(Cc2ccccc2)nc(SCC(=O)c2ccc(F)cc2)[nH]c1=O
- CC50 (MT4 [10]): 186 µM
- pEC50 [11]: 4.49

SMILES: CC(=O)c1ccc(Cn2cc(CSc3nc(Cc4c(Cl)cccc4Cl)c(C)c(=O)[nH]3)nn2)cc1
- CC50 (MT4 [14]): 32.5 µM

- pEC50 [1, 19]: 5.57
SMILES: CCSCSc1nc(=O)c(CC)c(Cc2cccc3ccccc23)[nH]1

SMILES: CCCNc1nc(Cc2c(F)cccc2F)c(C)c(=O)[nH]1
- CC50 (MT4 [12]): > 200 µM
- pEC50 [8]: 7.70

SMILES: CCc1c(Cc2ccccc2)nc(SC(C)CC)[nH]c1=O (stereo unspecified)
- pEC50 [15]: 7.40

SMILES: CSCSc1nc(Cc2c(F)cccc2F)cc(=O)[nH]1
- CC50 at 72 h [3]: > 200 µM
- pEC50 [4]: 6.10

- pEC50 [1, 19]: 6.43
SMILES: CCc1c(Cc2cccc3ccccc23)n(CSC)c(=O)[nH]c1=O

SMILES: CCC(C)Sc1nc(Cc2ccccc2)c(C(C)C)c(=O)[nH]1 (stereo unspecified)
- pEC50 [15]: 7.00

- pEC50 [9]: 6.74
SMILES: Cc1c(Cc2ccccc2)nc(SCC(=O)c2ccc(F)cc2)[nH]c1=O
- CC50 (MT4 [10]): 275 µM
- pEC50 [11]: 3.56

SMILES: CSCSc1nc(Cc2ccccc2)cc(=O)[nH]1
- pEC50 [15]: 4.70

- pEC50 [1, 19]: 5.34
SMILES: CCc1c(Cc2cccc3ccccc23)[nH]c(SCSC)nc1=O

- pEC50 [9]: 7.15
SMILES: CCc1c(Cc2ccccc2)nc(SCC(=O)c2ccc(F)cc2)[nH]c1=O
- CC50 (MT4 [10]): 240 µM
- pEC50 [11]: 4.79

SMILES: Cc1c(OP(=O)(N[C@@H](C)C(=O)OC(C)(C)C)Oc2ccccc2)nc(N(C)C)nc1C(C)c1c(F)cccc1F (stereo partly specified)
- pEC50 ([1]; read-out: EC50): 8.10
- pEC50 [2]: 6.00

- pEC50 [1, 19]: 7.30
SMILES: CCOCn1c(Cc2cccc3ccccc23)c(CC)c(=O)[nH]c1=O

SMILES: Cc1c(O)nc(SCC(C)C)nc1C(C)c1c(F)cccc1F (stereo unspecified)
- CC50 at 72 h [5]: 200 µM
- selectivity ratio [13]: 28600

SMILES: CC(c1cc(O)nc(SC2CCCCC2)n1)c1c(F)cccc1F (stereo unspecified)
- CC50 at 72 h [5]: > 200 µM
- selectivity ratio [13]: > 6670

SMILES: CCCCSc1nc(O)c(C)c(C(C)c2c(F)cccc2F)n1 (stereo unspecified)
- CC50 at 72 h [5]: 112 µM
- selectivity ratio [13]: 14000

SMILES: CCC(C)Sc1nc(O)cc(C(C)c2c(F)cccc2F)n1 (stereo unspecified)
- CC50 at 72 h [5]: > 200 µM
- selectivity ratio [13]: > 6670

SMILES: Cc1c(O)nc(SC2CCCCC2)nc1C(C)c1c(F)cccc1F (stereo unspecified)
- CC50 at 72 h [5]: > 200 µM
- selectivity ratio [13]: > 33300

SMILES: CCC(C)Sc1nc(O)cc(Cc2c(F)cccc2F)n1 (stereo unspecified)
- CC50 at 72 h [5]: > 200 µM
- pEC50 [6]: 7.40
- selectivity ratio [7]: > 5000
- CC50 (C8166): > 200 µM

SMILES: Cc1c(C(C)c2c(F)cccc2F)nc(N(C)C)[nH]c1=O (racemic)
- pEC50 [16]: 6.05
- CC50 (MT4 [17]): > 100 µM
- pEC50 [18]: 6.15
